Test results taken from ChEMBL document CHEMBL4819035, “C-2-Linked Dimeric Strychnine Analogues as Bivalent Ligands Targeting Glycine Receptors” (J Nat Prod, 2021).

What was measured:
[1] = target: T1, Glycine receptor subunit alpha-1 (Homo sapiens, UniProt P23415); experiment: Antagonist activity at human glycine receptor subunit alpha-1 expressed in HEK293 cells assessed as reduction in glycine-induced currents by whole-cell patch-clamp assay; type: cell-based
T1 sequence (P23415 whole entry): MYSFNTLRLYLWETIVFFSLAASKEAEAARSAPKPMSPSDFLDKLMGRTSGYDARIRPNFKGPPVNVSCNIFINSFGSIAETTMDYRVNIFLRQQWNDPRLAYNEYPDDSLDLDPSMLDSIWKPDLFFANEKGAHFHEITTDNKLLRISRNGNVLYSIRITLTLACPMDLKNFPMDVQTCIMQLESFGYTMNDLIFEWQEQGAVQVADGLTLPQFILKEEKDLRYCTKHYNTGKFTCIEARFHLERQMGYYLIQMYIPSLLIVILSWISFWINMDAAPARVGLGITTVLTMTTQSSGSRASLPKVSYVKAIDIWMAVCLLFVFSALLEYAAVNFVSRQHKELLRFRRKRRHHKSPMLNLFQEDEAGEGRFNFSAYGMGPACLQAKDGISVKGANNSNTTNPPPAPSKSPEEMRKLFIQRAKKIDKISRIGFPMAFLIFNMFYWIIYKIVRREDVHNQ

[2] = target: T1, Glycine receptor subunit alpha-1; experiment: Displacement of [3H]strychnine from human glycine receptor subunit alpha-1 expressed in HEK293 cell membranes preincubated for 30 mins followed by [3H]strychnine addition and measured after 30 mins by liquid scintillation counting method; design: species or system Membrane
[3] = target: T1, Glycine receptor subunit alpha-1; experiment: Antagonist activity at human glycine receptor subunit alpha-1 assessed as inhibition of glycine-induced current measured at the onset of compound application by patch-clamp assay
[4] = target: T2, Glycine receptor (alpha-1/beta) (Homo sapiens, UniProt P23415+P48167); experiment: Antagonist activity at human glycine receptor subunit alpha-1beta expressed in human tsA201 cells assessed as reduction in glycine-induced response incubated for 30 mins by fluorescence-based FLIPR membrane potential blue assay; type: cell-based; conditions: read-out: IC50
[5] = target: T1, Glycine receptor subunit alpha-1; experiment: Antagonist activity at human glycine receptor subunit alpha-1 expressed in human tsA201 cells assessed as reduction in glycine-induced response incubated for 30 mins by fluorescence-based FLIPR membrane potential blue assay; type: cell-based; conditions: for IC50: read-out: IC50
[6] = target: T1, Glycine receptor subunit alpha-1; experiment: Antagonist activity at human glycine receptor subunit alpha-1 assessed as inhibition of glycine-induced current measured at the later state of compound application by patch-clamp assay
[7] = target: T2, Glycine receptor (alpha-1/beta); experiment: Antagonist activity at human glycine receptor subunit alpha-1beta expressed in HEK293 cells assessed as reduction in glycine-induced currents by whole-cell patch-clamp assay; type: cell-based

T2 sequence (P48167 whole entry, one chain of several): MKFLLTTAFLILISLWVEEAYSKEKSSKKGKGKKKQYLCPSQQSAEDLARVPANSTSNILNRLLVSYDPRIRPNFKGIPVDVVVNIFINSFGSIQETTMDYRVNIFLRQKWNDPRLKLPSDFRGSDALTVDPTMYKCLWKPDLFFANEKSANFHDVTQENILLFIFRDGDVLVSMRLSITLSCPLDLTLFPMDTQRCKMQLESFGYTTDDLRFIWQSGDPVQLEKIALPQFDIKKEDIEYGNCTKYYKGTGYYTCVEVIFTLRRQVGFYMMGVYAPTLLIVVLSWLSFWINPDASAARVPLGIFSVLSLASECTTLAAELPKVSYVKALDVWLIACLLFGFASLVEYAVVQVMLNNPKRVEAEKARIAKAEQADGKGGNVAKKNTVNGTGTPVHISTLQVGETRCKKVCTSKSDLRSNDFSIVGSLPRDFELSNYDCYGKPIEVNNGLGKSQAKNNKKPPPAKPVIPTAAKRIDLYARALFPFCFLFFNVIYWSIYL

Row | SMILES | IC50 [1] | Ki [2] | IC50 [3] | IC50 ([4]; tsa201) | pIC50 ([5]; tsa201) | IC50 [6] | IC50 [7] | IC50 [4] | IC50 [5]
1 | O=C1C[C@@H]2OCC=C3CN4CC[C@]56c7ccccc7N1[C@H]5[C@H]2[C@H]3C[C@H]46 [STRYCHNINE] | 0.05 µM | 0.005 µM | 0.134 µM | 0.51 µM | 6.82 | 0.027 µM | 0.06 µM | – | –
2 | O=C(CCCCCCC(=O)Nc1ccc2c(c1)[C@@]13CCN4CC5=CCO[C@H]6CC(=O)N2[C@H]1[C@H]6[C@H]5C[C@H]43)Nc1ccc2c(c1)[C@@]13CCN4CC5=CCO[C@H]6CC(=O)N2[C@H]1[C@H]6[C@H]5C[C@H]43 | 1.1 µM | – | – | – | – | – | 1.3 µM | 10 µM | 6.9 µM
3 | O=C(CCCCCCCCC(=O)Nc1ccc2c(c1)[C@@]13CCN4CC5=CCO[C@H]6CC(=O)N2[C@H]1[C@H]6[C@H]5C[C@H]43)Nc1ccc2c(c1)[C@@]13CCN4CC5=CCO[C@H]6CC(=O)N2[C@H]1[C@H]6[C@H]5C[C@H]43 | 1.5 µM | – | – | – | – | – | 1.9 µM | 10 µM | 7.2 µM
